Reference: patent publication US11440923B2, “Substituted macrocyclic indole derivatives” (Bayer Aktiengesellschaft, priority 2017, dated 2022)
Where a name gives a salt, the structure may show the parent alone. Read-outs that look alike come from different tables or passages of the source.

Columns and labels:
Format in all cases: cell-based
SUDHL5 cells [1] = assay: Antiproliferation assay SUDHL5 (Assay 7)
In short: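 IC50 values reflect growth relative to a day 0 baseline (CI) and DMSO vehicle (C0). Viable cells were quantified by CellTiter-Glo luminescence after 72 h treatment at 37 °C.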

SUDHL5 cells [2] = assay: Induction of caspase-3/7 activity in SUDHL5 cells (Assay 4)
In short: (§1)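 Read-out: Caspase-Glo 3/7 luminescence (1 h, 37 °C) after cells, plated overnight, were treated with compounds for 3 h at 37 °C. Signal corrected for cell-free medium background and expressed relative to DMSO control mean.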

SUDHL10 cells [3] = assay: Induction of caspase-3/7 activity in SUDHL10 cells (Assay 4)
In short: as §1

SUDHL10 cells [4] = assay: Induction of cytotoxicity in SUDHL10 cells (Assay 6); details: 5 h, CellTiter-Glo, read-out: Cytotox SUDHL10 IC50 (median)
In short: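 Overnight seeding, 37 °C; 5 h compound exposure; CellTiter-Glo, 15 min RT shake; luminescence read. No-cell medium control.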

[5] = Homo sapiens, SU-DHL-5, 72 h, 72 h, CellTiter-Glo; read-out: Antiproli SUDHL5 IC50 (median)
[6] = 72 h, CellTiter-Glo; read-out: Antiproli SUDHL5 IC50 (median)
[7] = caspase-3/7 induction, 3 h; read-out: Caspase SUDHL5 EC50 (median)
[8] = caspase-3/7 induction, 3 h; read-out: Caspase SUDHL10 EC50 (median)

| IC50 (SUDHL5 cells [1]; [5]) [nM] | EC50 (SUDHL5 cells [2]; Homo sapiens, SU-DHL-5, 3 h, caspase-3/7 induction, 3 h; read-out: Caspase SUDHL5 EC50 (median)) [nM] | EC50 (SUDHL10 cells [3]; Homo sapiens, SU-DHL10, 3 h, caspase-3/7 induction, 3 h; read-out: Caspase SUDHL10 EC50 (median)) [nM] | IC50 (SUDHL5 cells [1]; read-out: Antiproli SUDHL5 IC50 (median); 72 h, CellTiter-Glo) [nM] | EC50 (SUDHL5 cells [2]; read-out: Caspase SUDHL5 EC50 (median); caspase-3/7 induction, 3 h) [nM] | EC50 (SUDHL10 cells [3]; read-out: Caspase SUDHL10 EC50 (median); caspase-3/7 induction, 3 h) [nM] | IC50 (SUDHL5 cells [1]; [6]) [nM] | EC50 (SUDHL5 cells [2]; [7]) [nM] | EC50 (SUDHL10 cells [3]; [8]) [nM] | Structure (SMILES) | IC50 (SUDHL10 cells [4]; Homo sapiens, SU-DHL10, 5 h) [nM] | IC50 (SUDHL10 cells [4]) [nM] |
| --- | --- | --- | --- | --- | --- | --- | --- | --- | --- | --- | --- |
| 1200 | 960 | 1100 | – | – | – | – | – | – | CCc1c2c(nn1C)C(Cc1ccccc1)OCCCCn1c(C(=O)O)c(CCCOc3cccc4cc(F)ccc34)c3ccc(Cl)c-2c31 (racemic) [Example 92, (rac)-(rac-15)-benzyl-4-chloro-3-ethyl-7-{3-[(6-fluoro-1-naphthyl)oxy]propyl}-2-methyl-2,10,11,12,13,15-hexahydropyrazolo[4′,3′:9,10][1,6]oxazacycloundecino[8,7,6-hi]indole-8-carboxylic Acid] | 1400 | – |
| 95 | – | – | – | – | – | – | 19 | 99 | CCc1c2c(nn1C)C(CCO)OCCCCn1c(C(=O)O)c(CCCOc3cccc4cc(F)ccc34)c3ccc(Cl)c-2c31 (single isomer, unassigned; enantiomer 1) [Example 45, (+)-4-chloro-3-ethyl-7-{3-[(6-fluoronaphthalen-1-yl)oxy]propyl}-15-(2-hydroxyethyl)-2-methyl-2,10,11,12,13,15-hexahydropyrazolo[4′,3′:9,10][1,6]oxazacycloundecino[8,7,6-hi]indole-8-carboxylic Acid (Enantiomer 1)] | – | 73 |

The remaining lines, values behind:

| Structure (SMILES) | IC50 (SUDHL5 cells [1]; [5]) [nM] | EC50 (SUDHL5 cells [2]; Homo sapiens, SU-DHL-5, 3 h, caspase-3/7 induction, 3 h; read-out: Caspase SUDHL5 EC50 (median)) [nM] | EC50 (SUDHL10 cells [3]; Homo sapiens, SU-DHL10, 3 h, caspase-3/7 induction, 3 h; read-out: Caspase SUDHL10 EC50 (median)) [nM] | IC50 (SUDHL5 cells [1]; read-out: Antiproli SUDHL5 IC50 (median); 72 h, CellTiter-Glo) [nM] | EC50 (SUDHL5 cells [2]; read-out: Caspase SUDHL5 EC50 (median); caspase-3/7 induction, 3 h) [nM] | EC50 (SUDHL10 cells [3]; read-out: Caspase SUDHL10 EC50 (median); caspase-3/7 induction, 3 h) [nM] | IC50 (SUDHL5 cells [1]; [6]) [nM] | EC50 (SUDHL5 cells [2]; [7]) [nM] | EC50 (SUDHL10 cells [3]; [8]) [nM] | IC50 (SUDHL10 cells [4]; Homo sapiens, SU-DHL10, 5 h) [nM] | IC50 (SUDHL10 cells [4]) [nM] |
| --- | --- | --- | --- | --- | --- | --- | --- | --- | --- | --- | --- |
| CCc1c2c(nn1C)C(CC(C)(C)O)OCCCCn1c(C(=O)O)c(CCCOc3cccc4cc(F)ccc34)c3ccc(Cl)c-2c31 (single isomer, unassigned; enantiomer 21) [Example 54, (−)-4-chloro-3-ethyl-7-{3-[(6-fluoronaphthalen-1-yl)oxy]propyl}-15-(2-hydroxy-2-methylpropyl)-2-methyl-2,10,11,12,13,15-hexahydropyrazolo[4′,3′:9,10][1,6]oxazacycloundecino[8,7,6-hi]indole-8-carboxylic Acid—N-ethylethanamine Salt (Enantiomer 21] | – | – | – | 13000 | 6500 | 14000 | – | – | – | – | 17000 |
| CCc1c2c(nn1C)C(CCN1CC(F)(F)C1)OCCCCn1c(C(=O)O)c(CCCOc3cccc4cc(F)ccc34)c3ccc(Cl)c-2c31 (single isomer, unassigned; (+)) [Example 78, (+)-4-chloro-15-[2-(3,3-difluoroazetidin-1-yl)ethyl]-3-ethyl-7-{3-[(6-fluoronaphthalen-1-yl)oxy]propyl}-2-methyl-2,10,11,12,13,15-hexahydropyrazolo[4′,3′:9,10][1,6]oxazacycloundecino[8,7,6-hi]indole-8-carboxylic Acid—N-ethylethanamine Salt] | – | – | – | – | – | – | 16 | 13 | 9.9 | – | 12 |
| Cc1c2c(nn1C)C(CCN1CCOCC1)OCCCCn1c(C(=O)O)c(CCCOc3cccc4ccccc34)c3ccc(Cl)c-2c31 (single isomer, unassigned; enantiomer 1) [Example 14, 4-chloro-2,3-dimethyl-15-[2-(morpholin-4-yl)ethyl]-7-{3-[(naphthalen-1-yl)oxy]propyl}-2,10,11,12,13,15-hexahydropyrazolo[4′,3′:9,10][1,6]oxazacycloundecino[8,7,6-hi]indole-8-carboxylic Acid (Enantiomer 1)] | – | – | – | – | – | – | 28 | 9.8 | 31 | – | 34 |
